Values after ≈ are worked out from the molar mass of the structure shown. Like-named read-outs stand apart in the source and are kept apart here.
How the values were obtained:
[1] = cited from earlier work; for Cmax / Tmax: healthy human subjects
[2] = Compound chemical stability PBS (pH 6.5)
[3] = Compound chemical stability SGF with pepsin
[4] = Compound chemical stability SGF without pepsin
[5] = Compound solubility in FaSSIF
[6] = Compound mouse plasma stability
[7] = healthy human subjects, cited from earlier work

Structure (SMILES) | % Remaining ([2]; PBS pH 6.5, 0 minutes) [%] | % Remaining ([2]; PBS pH 6.5, 30 minutes) [%] | % Remaining ([2]; PBS pH 6.5, 60 minutes) [%] | % Remaining ([2]; PBS pH 6.5, 120 minutes) [%] | % Remaining ([2]; PBS pH 6.5, 240 minutes) [%] | % Remaining ([3]; 0 minutes) [%] | % Remaining ([3]; 30 minutes) [%] | % Remaining ([3]; 60 minutes) [%] | % Remaining ([3]; 120 minutes) [%] | % Remaining ([3]; 240 minutes) [%] | % Remaining ([4]; 0 minutes) [%] | % Remaining ([4]; 30 minutes) [%] | % Remaining ([4]; 60 minutes) [%] | % Remaining ([4]; 120 minutes) [%] | % Remaining ([4]; 240 minutes) [%] | solubility [5] [µM] | % Remaining ([6]; 0 minutes) [%] | % Remaining ([6]; 15 minutes) [%] | % Remaining ([6]; 30 minutes) [%] | % Remaining ([6]; 60 minutes) [%] | further results
CC(N)Cc1ccc2c(c1)OCO2 (stereo not shown) [MDA] |  |  |  |  |  |  |  |  |  |  |  |  |  |  |  |  |  |  |  |  | Cmax ([1]; 75 mg MDA): 7.8 ng/mL; Tmax ([1]; 75 mg MDMA): 5 h; Cmax ([1]; 125 mg MDA): 13.7 ng/mL; Tmax ([1]; 125 mg MDMA): 7 h; MDA formation rate constant ([1]; estimated for both MDMA doses): about 0.75 h
C[C@H](Cc1ccc2c(c1)OCO2)N(C)C(=O)OC(C)(C)C [Compound 7, tert-butyl(R)-(1-(benzo[d][1,3]dioxol-5-yl)propan-2-yl)(methyl)carbamate] | 100.00 | 94.54 | 105.49 | 105.72 | 102.75 | 100.00 | 74.97 | 63.49 | 56.42 | 28.25 | 100.00 | 89.90 | 73.62 | 61.79 | 30.52 | 257 (≈ 75.3 µg/mL) | 100 | 101 | 92 | 83 | % Remaining ([6]; 120 minutes): 92%
C[C@H](Cc1ccc2c(c1)OCO2)NC(=O)OC(C)(C)C [Compound 6, tert-butyl(R)-(1-(benzo[d][1,3]dioxol-5-yl)propan-2-yl)carbamate] | 100.00 | 84.81 | 93.60 | 103.65 | 91.66 | 100.00 | 85.17 | 79.89 | 56.87 | 31.48 | 100.00 | 87.96 | 77.20 | 57.49 | 28.57 | 175 (≈ 49 µg/mL) | 100 | 102 | 106 | 92 | % Remaining ([6]; 120 minutes): 95%
CCOC(=O)NC(C)Cc1ccc2c(c1)OCO2 (stereo not shown) [Compound 2, ethyl(1-(benzo[d][1,3]dioxol-5-yl)propan-2-yl)carbamate] | 100.00 | 89.05 | 87.87 | 91.21 | 88.66 | 100.00 | 100.95 | 97.74 | 98.18 | 99.08 | 100.00 | 102.53 | 101.64 | 90.45 | 99.40 | 313 (≈ 78.8 µg/mL) | 100.00 | 101.77 | 86.60 | 89.02 | % Remaining ([6]; 120 minutes): 84.42%
CNC(C)Cc1ccc2c(c1)OCO2 (racemic) [MDMA, 3,4-methylenedioxymethamphetamine] |  |  |  |  |  |  |  |  |  |  |  |  |  |  |  |  |  |  |  |  | Cmax ([7]; 75 mg MDMA): 130.9 ng/mL; T1/2 (elimination half-life) ([7]; 75 mg MDMA): 7.7 h; Tmax ([7]; 75 mg MDMA): 1.8 h; Cmax ([7]; 125 mg MDMA): 236.4 ng/mL; T1/2 (elimination half-life) ([7]; 125 mg MDMA): 8.6 h; Tmax ([7]; 125 mg MDMA): 2.4 h
CCOC(=O)N(C)C(C)Cc1ccc2c(c1)OCO2 (stereo not shown) [Compound 1, ethyl(1-(benzo[d][1,3]dioxol-5-yl)propan-2-yl)(methyl)carbamate] | 100.00 | 90.48 | 90.36 | 89.59 | 90.28 | 100.00 | 101.86 | 98.61 | 103.31 | 100.50 | 100.00 | 103.81 | 101.90 | 103.81 | 104.29 | 309 (≈ 82 µg/mL) | 100.00 | 108.51 | 87.67 | 98.49 | % Remaining ([6]; 120 minutes): 89.31%
CC(Cc1ccc2c(c1)OCO2)N(C)C(=O)CN (stereo not shown) [Compound 4, 2-amino-N-(1-(benzo[d][1,3]dioxol-5-yl)propan-2-yl)-N-methylacetamide] | 100.00 | 88.84 | 92.54 | 92.04 | 92.48 | 100.00 | 108.06 | 98.50 | 106.18 | 103.88 | 100.00 | 94.49 | 96.72 | 96.67 | 96.46 | 291 (≈ 72.9 µg/mL) | 100.00 | 102.99 | 83.50 | 94.51 | % Remaining ([6]; 120 minutes): 87.42%
Cc1oc(=O)oc1CN(C)[C@H](C)Cc1ccc2c(c1)OCO2 [Compound 9, (R)-4-(((1-(benzo[d][1,3]dioxol-5-yl)propan-2-yl)(methyl)amino)methyl)-5-methyl-1,3-dioxol-2-one] | 100 | 83 | 75 | 55 | 32 | 100 | 97 | 92 | 87 | 71 | 1000 | 94 | 89 | 83 | 72 | 223 (≈ 68.2 µg/mL) | 100 | 70 | 22 | 4 | 

Reference: patent US11845736B2, “Prodrugs of MDMA, MDA, and derivatives thereof” (EmpathBio, Inc., priority 2021, dated 2023)
